Data as given in patent US8808713B2, “Compositions for pulmonary delivery of long-acting β2 adrenergic receptor agonists and associated methods and systems” (Pearl Thereapeutics, Inc., priority 2009, dated 2014).

What was measured:
[1] = Visual observation of suspension quality / co-suspension in glass vials (settling, centrifugation); format: physicochemical
Procedure: The canisters were crimp sealed with 63 μl valves (# BK 357, Bespak, King's Lynn, UK) and filled with 12.4 g of HFA 134a (1,1,1,2-tetrafluoroethane) (Ineos Fluor, Lyndhurst, UK) by overpressure through the valve stem. After injecting the propellant, the canisters were sonicated for 15 seconds and agitated on a wrist action shaker for 30 minutes. The canisters were fitted with polypropylene actuators with a 0.3 mm orifice (# BK 636, Bespak, King's Lynn, UK). Additional inhalers for visual observation of suspension quality were prepared using glass vials.
The canisters were crimp sealed with 63 μl valves (Valois DF30/63 RCU, Les Vaudreuil, France) and filled with 9.5 mL of HFA 134a (Ineos Fluor, Lyndhurst, UK) by overpressure through the valve stem. After injecting the propellant, the canisters were sonicated for 15 seconds and agitated on a wrist action shaker for 30 minutes. Additional inhalers with suspending particles only were manufactured as control for each configuration.
Metered dose inhalers were prepared by weighing the target masses of micronized active agent particles and suspending particles into coated glass vials with 15 mL volume. […] For each configuration, additional glass bottles were filled with the respective amount of FF active agent particles without any suspending particles. […]

[2] = system: patients with mild to moderate COPD; assay: Multi-center clinical trial, single-dose crossover: spirometry (FEV1) and safety; conditions: 18 μg via Spiriva Handihaler

Question: Which “Visual observation: sedimentation of crystalline FF” value ([1]; glass vials, HFA 134a, left to settle 24 h) does the source give for `COc1ccc(CC(C)NCC(O)c2ccc(O)c(NC=O)c2)cc1.O=C(O)/C=C/C(=O)O` (racemic) [FF, (±)-2-hydroxy-5-[(1RS)-1-hydroxy-2-[[(1RS)-2-(4-methoxyphenyl)-1-methylethyl]-amino]ethyl]formanilide fumarate] here?
Answer: sedimented quickly

Question: For `OCc1cc(C(O)CNCCCCCCOCCCCc2ccccc2)ccc1O` (stereo not drawn) [SX, 4-hydroxy-α1-[[[6-(4-phenylbutoxy)hexyl]amino]methyl]-1,3-benzenedimethanol, 1-hydroxy-2-naphthalenecarboxylate], which “Visual observation: sedimentation of SX crystals” value ([1]; glass vials heated up to 30° C.-35° C. in a water bath) is on record?
Answer: sedimented rapidly

Question: For `C[N+]1(C)[C@@H]2C[C@@H](OC(=O)C(O)(c3cccs3)c3cccs3)C[C@H]1[C@@H]1O[C@@H]12` [tiotropium], which “Mean time to ≧10% improvement in FEV1” value [2] is on record?
Answer: approximately 3 hours
